Results published in patent EP4670722A1, “PROPHYLACTIC OR AMELIORATING AGENT FOR CELL AGING” (Kyowa Pharma Chemical Co., Ltd., priority 2023, dated 2024).

What was measured:
[1] = system: Human normal epidermal keratinocytes (HaCaT); test: Cell proliferation rate (MTT) of normal epidermal keratinocytes; type: cell-based; conditions: 50 µg/mL to 200 µg/mL in medium, 2 days, activity increased as content increased, Fig. 1
Protocol: Human normal epidermal keratinocytes (HaCaT) were cultured using DMEM containing 10% FBS. The cultured cells were collected by trypsin treatment. The collected cells were seeded in a 96-well microplate at a concentration of 5.0 x 10^3 cells/well and cultured overnight. Thereafter, the cells were cultured for 2 days at 37°C in a medium for epidermal keratinocyte proliferation (FBS-free) to which a test sample (sucrose or 2'-fucosyllactose) was added to a concentration of 50 µg/mL, 100 µg/mL, or 200 µg/mL. The medium was replaced with FBS-free DMEM medium, then 10 µL/well of 5 mg/mL 3-[4,5-dimethylthiazol-2-yl]-2,5-diphenyltetrazolium bromide (MTT) was added, and the cells were cultured at 37°C for 3 hours. After completion of culture, formazan produced in the cells was extracted with 100 µL of dimethyl sulfoxide (DMSO). After extraction, the absorbance of formazan (As, 492 nm) was measured with a microplate reader. The reference wavelength was set to 620 nm.
Human normal epidermal keratinocytes were cultured and the absorbance of formazan was measured in the same manner as in Example 1-1, except that no test sample was added. The obtained absorbance was designated as Ab, and the cell proliferation rate represented by the following formula (1) was determined. Cell proliferation rate(%) = 100 x As/AB [formula]

type I collagen = test: Type I collagen expression analysis (ELISA); type: cell-based, Human; conditions: at a concentration of at least 100 µg/mL or more, 48 hours; effect increased from 100 µg/mL to 200 µg/mL; Fig. 9
Protocol: Human normal dermal fibroblasts (NB1RGB) with a PDL of 30 or less were cultured in DMEM (Dulbecco's Modified Eagle Medium, manufactured by Nissui Pharmaceutical Co., Ltd.) containing 10% FBS. The cultured cells were collected by trypsin treatment. The collected cells were seeded in a 96-well plate, and when they reached 100% confluence, FBS-free DMEM containing the test sample (2'-FL and sucrose) at 50 µg/mL, 100 µg/mL, or 200 µg/mL was added, and after culturing for 48 hours in a 37°C, 5% CO2 incubator, the culture supernatant was collected. The culture supernatant was centrifuged, and the resulting supernatant was used as a sample.
The culture supernatant was collected and used as a sample in the same manner as in [Example 8-1], except that FBS-free DMEM not containing the test sample was used instead of FBS-free DMEM containing the test sample.
An Enzyme-Linked Immunosorbent Assay (ELISA) method was performed using an antibody against type I collagen to measure the amount of type I collagen in the samples. […] After stopping the reaction, the absorbance at a measurement wavelength of 450 nm was measured using a microplate reader. […] The relative value of the type I collagen amount when each test sample was added was calculated, with the type I collagen amount in the control set to 1.

C[C@@H]1O[C@@H](O[C@H]2[C@H](O[C@H]3[C@H](O)[C@@H](O)C(O)O[C@@H]3CO)O[C@H](CO)[C@H](O)[C@@H]2O)[C@@H](O)[C@H](O)[C@@H]1O (some centres unmarked) [2'-FL, 2'-fucosyllactose]
proliferation activity of normal epidermal cells (cell proliferation rate) [1]: improved the proliferation activity of normal epidermal cells | expression level of type I collagen (type I collagen): increased the expression level of type I collagen
